The values below come from patent US20080021026A1, “BENZOTHIOPHENE INHIBITORS OF RHO KINASE” (priority 2006, published 2008).

In experiment [1] the test system is lasered (hypertensive) eyes of conscious cynomolgus monkeys. Nature of the experiment: Acute IOP response in lasered (hypertensive) eyes of conscious cynomolgus monkeys. The note with it: instilled in right eye, IOP measured at 1, 3 and 6 hours, peak reduction; for Peak % Lowering of IOP vs. Control at 0.3%: compound concentration 0.3%. It is filed as in vivo. The source says:
Acute IOP Response in Lasered (Hypertensive) Eyes of Conscious Cynomolgus Monkeys
Intraocular pressure (IOP) can be determined with an Alcon Pneumatonometer after light corneal anesthesia with 0.1% proparacaine. Eyes are washed with saline after each measurement. After a baseline IOP measurement, test compound is instilled in one […] aliquot to the right eyes only of nine cynomolgus monkeys. Vehicle is instilled in the right eyes of six additional animals. Subsequent IOP measurements are taken at 1, 3, and 6 hours, and peak reduction in IOP is reported below in Table 2 as percent of IOP lowering versus the control for each of the given concentrations of compound.
A more detailed description of the assay used herein may be found in May et al., “Evaluation of the Ocular Hypotensive Response of Serotonin 5-HT1A and 5-HT2 Receptor Ligands in Conscious Ocular Hypertensive Cynomolgus Monkeys,” J. of Pharmacology and Experimental Therapeutics, vol. 306(1), pp. 301-309 (2003), the disclosure of which is hereby incorporated by reference as if written herein in its entirety.

In experiment [2] the target is T1, recombinant N-terminal GST-tagged human Rho kinase 1 (ROCK1, amino acids 1-535) (Homo sapiens, UniProt Q13464).
T1 construct: ROCK1, amino acids 1-535; purchased Invitrogen Inc. PV-3691
T1 sequence (Q13464 1-535): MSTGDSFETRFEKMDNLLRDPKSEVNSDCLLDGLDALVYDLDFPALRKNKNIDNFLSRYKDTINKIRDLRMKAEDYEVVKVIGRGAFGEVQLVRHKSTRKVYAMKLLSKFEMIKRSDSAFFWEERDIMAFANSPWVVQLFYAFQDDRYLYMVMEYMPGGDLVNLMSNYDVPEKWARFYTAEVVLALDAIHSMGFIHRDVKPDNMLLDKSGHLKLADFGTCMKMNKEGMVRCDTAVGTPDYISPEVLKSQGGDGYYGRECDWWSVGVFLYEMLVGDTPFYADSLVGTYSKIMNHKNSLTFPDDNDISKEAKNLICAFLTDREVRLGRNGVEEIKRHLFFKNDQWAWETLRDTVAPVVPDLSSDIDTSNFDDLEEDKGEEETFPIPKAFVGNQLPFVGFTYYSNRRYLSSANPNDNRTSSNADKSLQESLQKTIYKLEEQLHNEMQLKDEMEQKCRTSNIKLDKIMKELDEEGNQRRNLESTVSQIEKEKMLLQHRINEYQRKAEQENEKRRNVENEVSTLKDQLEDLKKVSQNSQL
In words: In vitro Rho kinase assay (luciferase-based ATP consumption), ROCK1. The class given is biochemical. Conditions: recombinant GST-tagged human ROCK1, luciferase-based ATP consumption; read-out: ROCK1 IC50. The method, boiled down:
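ATP depletion measured by firefly luciferase luminescence after 2 h at 30 °C, with inhibition raising signal and activity expressed relative to H-1152P. Reaction: 0.82 μg/ml recombinant GST-tagged ROCK1 (aa 1-535), S6 peptide 100 μg/ml, […], pH 7.5 Tris buffer.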

The target of experiment [3] is T2, recombinant N-terminal GST-tagged human Rho kinase 2 (ROCK2, amino acids 1-552) (Homo sapiens, UniProt O75116).
T2 construct: ROCK2, amino acids 1-552; purchased Invitrogen Inc. PV3759
T2 sequence (O75116 1-552): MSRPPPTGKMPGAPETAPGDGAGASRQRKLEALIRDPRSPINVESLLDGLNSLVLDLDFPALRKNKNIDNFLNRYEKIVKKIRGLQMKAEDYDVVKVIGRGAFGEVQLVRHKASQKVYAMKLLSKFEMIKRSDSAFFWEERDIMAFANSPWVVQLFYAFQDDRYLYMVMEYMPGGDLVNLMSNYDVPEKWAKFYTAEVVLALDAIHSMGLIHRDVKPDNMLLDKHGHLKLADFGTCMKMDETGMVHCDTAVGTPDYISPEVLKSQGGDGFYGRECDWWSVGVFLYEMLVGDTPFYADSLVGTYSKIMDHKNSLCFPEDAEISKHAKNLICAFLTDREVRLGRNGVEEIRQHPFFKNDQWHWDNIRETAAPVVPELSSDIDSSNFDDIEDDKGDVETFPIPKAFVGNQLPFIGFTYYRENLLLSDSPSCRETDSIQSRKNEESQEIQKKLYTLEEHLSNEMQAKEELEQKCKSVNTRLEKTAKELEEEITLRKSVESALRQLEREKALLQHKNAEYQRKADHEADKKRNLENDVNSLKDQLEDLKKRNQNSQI
In words: In vitro Rho kinase assay (luciferase-based ATP consumption), ROCK2. The class given is biochemical. Conditions: recombinant GST-tagged human ROCK2, luciferase-based ATP consumption; read-out: ROCK2 IC50. The method, boiled down: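 Luciferase-based luminescence of leftover ATP after 2 h at 30 °C, where inhibition raises signal, reports activity of GST-tagged ROCK2 (aa 1-552) at 0.82 μg/ml. Conditions: S6 peptide 100 μg/ml, […], pH 7.5 Tris buffer. Results given as percent of H-1152P control activity.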

For the compound `COc1cccc(Cc2ccc3sc(-c4ccnc(N)n4)c(C)c3c2)c1` [Example 26, 4-(5-(3-Methoxybenzyl)-3-methylbenzo[b]thiophen-2-yl)pyrimidin-2-amine], the “Peak % Lowering of IOP vs. Control at 0.3%” value (“Peak % Lowering … at 0.3%” below) in experiment [1] is reported as 9.8%. Further, the IC50 in experiment [2] and in experiment [3] was < 5 µM each time.
For `Cc1c(-c2ccnc(N)n2)sc2ccc(Cc3cccc(O)c3)cc12` [Example 27, 3-((2-(2-Aminopyrimidin-4-yl)-3-methylbenzo[b]thiophen-5-yl)methyl)phenol], in experiment [1], the “Peak % Lowering … at 0.3%” value is 3.6%. For the same compound, the IC50 in experiment [2] and in experiment [3] was < 5 µM each time.
Turning to `COc1cccc(Nc2ccc3sc(-c4ccnc(N)n4)c(C)c3c2)c1` [Example 51, 4-(5-(3-Methoxyphenylamino)-3-methylbenzo[b]thiophen-2-yl)pyrimidin-2-amine], the “Peak % Lowering … at 0.3%” value in experiment [1] is 9.5%. Moreover, the “Peak % Lowering of IOP vs. Control at 1.0%” value in experiment [1] (compound concentration 1.0%) is 18.6%. The IC50 in experiment [2] and in experiment [3] was < 5 µM in each case.
`Cc1c(-c2ccnc(N)n2)sc2ccc(CNC(=O)c3cccc(I)c3)cc12` [Example 320, Cc1c(sc2ccc(CNC(═O)c3cccc(I)c3)cc12)-c4ccnc(N)n4]: the IC50 in experiment [2] was > 5 µM; in experiment [3] it was < 5 µM.
The matching figures for `Cc1c(-c2ccnc(N)n2)sc2ccc(CNC(=O)C3CCCN3C(=O)OCc3ccccc3)cc12` (stereo not shown) [Example 321, Cc1c(sc2ccc(CNC(═O)[C]3CCCN3C(═O)OCc4ccccc4)cc12)-c5ccnc(N)n5]: < 5 µM and > 5 µM.
Taken in the same sequence, the figures for `CCC(C)C(NC(=O)OC(C)(C)C)C(=O)NCc1ccc2sc(-c3ccnc(N)n3)c(C)c2c1` (stereo not shown) [Example 322, CCC(C)[C](NC(═O)OC(C)(C)C)C(═O)NCc1ccc2sc(c(C)c2c1)-c3ccnc(N)n3] were < 5 µM and > 5 µM.
Regarding `Cc1c(-c2ccnc(N)n2)sc2ccc(CNC(=O)C(CC(C)C)NC(=O)OC(C)(C)C)cc12` (stereo not shown) [Example 323, CC(C)C[C](NC(═O)OC(C)(C)C)C(═O)NCc1ccc2sc(c(C)c2c1)-c3ccnc(N)n3], the IC50 in experiment [2] was < 5 µM; in experiment [3] it was > 5 µM.
The matching figures for `Cc1c(-c2ccnc(N)n2)sc2ccc(CNC(=O)C(C)c3cccc(C(=O)c4ccccc4)c3)cc12` (stereo not shown) [Example 324, CC(C(═O)NCc1ccc2sc(c(C)c2c1)-c3ccnc(N)n3)c4cccc(c4)C(═O)c5ccccc5]: > 5 µM and > 5 µM.
The matching figures for `Cc1c(-c2ccnc(N)n2)sc2ccc(CNC(=O)C(Cc3ccccc3)NC(=O)OC(C)(C)C)cc12` (stereo not shown) [Example 325, Cc1c(sc2ccc(CNC(═O)[C](Cc3ccccc3)NC(═O)OC(C)(C)C)cc12)-c4ccnc(N)n4]: < 5 µM and > 5 µM.
The matching figures for `Cc1c(-c2ccnc(N)n2)sc2ccc(CNC(=O)C(Cc3ccccn3)NC(=O)OC(C)(C)C)cc12` (stereo not shown) [Example 326, Cc1c(sc2ccc(CNC(═O)[C](Cc3ccccn3)NC(═O)OC(C)(C)C)cc12)-c4ccnc(N)n4]: < 5 µM and > 5 µM.
Take `Cc1c(-c2ccnc(N)n2)sc2ccc(CNC(=O)C3Cc4ccccc4CN3C(=O)OC(C)(C)C)cc12` (stereo not shown) [Example 327, Cc1c(sc2ccc(CNC(═O)[C]3Cc4ccccc4CN3C(═O)OC(C)(C)C)cc12)-c5ccnc(N)n5]: the values for the IC50 in experiment [2] and in experiment [3] were < 5 µM and > 5 µM, respectively.
The matching figures for `Cc1c(-c2ccnc(N)n2)sc2ccc(CNC(=O)C(Cc3ccc(O)cc3)NC(=O)OC(C)(C)C)cc12` (stereo not shown) [Example 328, Cc1c(sc2ccc(CNC(═O)C(Cc3ccc(O)cc3)NC(═O)OC(C)(C)C)cc12)c4ccnc(N)n4]: < 5 µM and < 5 µM.

In general, IC50 refers to the concentration needed to halve the response being measured.
